# Experimental data published in patent US20030138485A1, “Disintegrant” (DAIICHI PHARMACEUTICAL CO., LTD., priority 1998, published 2003).
# Assay: Measurement of viscosity of a saturated aqueous solution
# Type: physicochemical
# Conditions: B-type viscometer
# Method: (2) Measurement of Viscosity of a Saturated Aqueous Solution
# A saturated aqueous solution of a sample was prepared at 37° C., and the resultant solution was filtered by use of a membrane filter. The viscosity of the solution was measured by use of the resultant filtrate at 37° C. by means of a B-type viscometer.
row,Viscosity (37° C.),SMILES
1,1.6 mPa · s,"OC[C@@H](O)[C@@H](O)[C@H](O)[C@H](O)CO [D-Mannitol, reference compound]"
2,2090 or more mPa · s,"OC[C@@H](O)[C@@H](O)[C@H](O)[C@@H](O)CO [D-Sorbitol, reference compound]"
3,3.5 mPa · s,OC[C@@H](O)[C@@H](O)CO [Erythritol]
4,218 mPa · s,"OC[C@@H](O)[C@@H](O[C@@H]1O[C@H](CO)[C@H](O)[C@H](O)[C@H]1O)[C@H](O)[C@@H](O)CO [Hydrogenated lactose, reference compound]"
5,1.7 mPa · s,"OC[C@H]1O[C@@H](O[C@H]2[C@H](O)[C@@H](O)C(O)O[C@@H]2CO)[C@H](O)[C@@H](O)[C@H]1O (some centres unmarked) [Lactose, reference compound]"
6,38 mPa · s,OC[C@H]1O[C@H](O[C@H]2[C@H](O)[C@@H](O)[C@H](O)O[C@@H]2CO)[C@H](O)[C@@H](O)[C@@H]1O [Maltose]
7,30 mPa · s,CC(=O)[O-].[K+] [Potassium acetate]
8,5.2 mPa · s,CC(=O)[O-].[Na+] [Sodium acetate]
9,1120 mPa · s,"OC[C@H]1O[C@@](CO)(O[C@H]2O[C@H](CO)[C@@H](O)[C@H](O)[C@H]2O)[C@@H](O)[C@@H]1O [Sucrose, reference compound]"
10,11 mPa · s,OC[C@H]1O[C@H](O[C@H]2O[C@H](CO)[C@@H](O)[C@H](O)[C@H]2O)[C@H](O)[C@@H](O)[C@@H]1O [Trehalose]
11,37 mPa · s,OC[C@@H](O)[C@H](O)[C@@H](O)CO [Xylitol]

# Assay: Increase in weight by moisture absorption
# Type: physicochemical
# Conditions: 25° C., relative humidity 75%, seven days; Table 2
# Method: (7) Increase in Weight by Moisture Absorption
# A sample tablet was weighed before and after moisture absorption, and the increase in weight of the tablet by moisture absorption (%) was calculated.
# In test Example 2, erythritol and trehalose (in the form of hydrous crystals, products of Hayashibara Shoji Inc.) and xylitol and maltose (in the form of anhydrous crystals, products of Nihon Shokuhin Kako Co., Ltd.) were stored for seven days at a temperature of 25° C. and a relative humidity of 75%. Thereafter, each of these was subjected to measurement of increase in weight by moisture absorption (%). In Reference Example 2, the increases in weight by moisture absorption (%) of cornstarch, low substituted hydroxypropylcellulose, carmellose, carmellose calcium, and carmellose sodium were measured in the same manner as in Test Example 2. These compounds had been dried in a drier at 80° C. for one hour, and then employed as samples.
row,moisture absorption (in words),SMILES
1,absorb little moisture,OC[C@@H](O)[C@@H](O)CO [Erythritol]
2,absorb little moisture,OC[C@H]1O[C@H](O[C@H]2[C@H](O)[C@@H](O)[C@H](O)O[C@@H]2CO)[C@H](O)[C@@H](O)[C@@H]1O [Maltose]
3,absorb little moisture,OC[C@H]1O[C@H](O[C@H]2O[C@H](CO)[C@@H](O)[C@H](O)[C@H]2O)[C@H](O)[C@@H](O)[C@@H]1O [Trehalose]
4,absorb little moisture,OC[C@@H](O)[C@H](O)[C@@H](O)CO [Xylitol]

# Same assay, conditions: sample stored 25° C., 75% open air, 7 days
row,increase in weight by moisture absorption [%],SMILES
1,0.03,OC[C@@H](O)[C@@H](O)CO [Erythritol]
2,0.06,OC[C@H]1O[C@H](O[C@H]2[C@H](O)[C@@H](O)[C@H](O)O[C@@H]2CO)[C@H](O)[C@@H](O)[C@@H]1O [Maltose]
3,0.99,OC[C@H]1O[C@H](O[C@H]2O[C@H](CO)[C@@H](O)[C@H](O)[C@H]2O)[C@H](O)[C@@H](O)[C@@H]1O [Trehalose]
4,0.05,OC[C@@H](O)[C@H](O)[C@@H](O)CO [Xylitol]

# Assay: not given
# Conditions: general description; cited from earlier work
SMILES,heat of dissolution [cal/g],hygroscopicity (in words),solubility in water (in words)
OC[C@@H](O)[C@@H](O)CO [Erythritol],-42.9,not hygroscopic,easily dissolved in water
OC[C@H]1O[C@H](O[C@H]2O[C@H](CO)[C@@H](O)[C@H](O)[C@H]2O)[C@H](O)[C@@H](O)[C@@H]1O [Trehalose],,not hygroscopic,easily dissolved in water
OC[C@@H](O)[C@H](O)[C@@H](O)CO [Xylitol],-35,slightly hygroscopic,very easily dissolved in water

# Assay: physchem
# Conditions: water
row,solubility thermodynamic [mg/mL],SMILES
1,240,"OC[C@@H](O)[C@@H](O)[C@H](O)[C@H](O)CO [D-Mannitol, reference compound]"
2,450,OC[C@@H](O)[C@@H](O)CO [Erythritol]
3,780,"OC[C@H]1O[C@@](CO)(O[C@H]2O[C@H](CO)[C@@H](O)[C@H](O)[C@H]2O)[C@@H](O)[C@@H]1O [Sucrose, reference compound]"
4,500,OC[C@H]1O[C@H](O[C@H]2O[C@H](CO)[C@@H](O)[C@H](O)[C@H]2O)[C@H](O)[C@@H](O)[C@@H]1O [Trehalose]
5,740,OC[C@@H](O)[C@H](O)[C@@H](O)CO [Xylitol]
